Assay results reported in patent US20240197738A1, “COMPOUND 7AI IN TREATING EWING SARCOMA BY INHIBITING OTUD7A” (The University of North Carolina at Chapel Hill, priority 2021, published 2024).

Columns and labels:
FLI1 = assay: Immunoblot of FLI1 proteins in normal control cells; type: cell-based, human; conditions: HUVEC and FF cells, doses of 7Ai for 3 days
Method: (§1) Cells were lysed in EBC buffer (50 mM Tris pH 7.5, 120 mM NaCl, 0.5% NP-40) or Triton X-100 buffer (50 mM Tris pH 7.5, 150 mM NaCl, 1% Triton X-100) supplemented with protease inhibitors (Complete Mini, Roche) and phosphatase inhibitors (phosphatase inhibitor cocktail set I and II, Calbiochem). The protein concentrations of whole cell lysates were measured by NanoDrop OneC using the Bio-Rad protein assay reagent as described previously. Equal amounts of whole cell lysates were resolved by SDS-PAGE and immunoblotted with indicated antibodies. For immunoprecipitations analysis, unless specified, 1000 μg lysates were incubated with the indicated antibody (1-2 μg) for 3-4 hr at 4° C. followed by 1 hr incubation with 10 μL Protein A magnetic beads (New England Biolabs). Or 1000 μg lysates containing tagged molecules were incubated with agarose beads coupled antibodies for the specific tag for 3-4 hr at 4° C. For endogenous IPs, incubation of cell lysates with antibodies was extended to overnight. The recovered immuno-complexes were washed five times with NETN buffer (20 mM Tris, pH 8.0, 100 mM NaCl, 1 mM EDTA and 0.5% NP-40) before being resolved by SDS-PAGE and immunoblotted with indicated antibodies.

EWS894 cells = assay: Cell viability (MTT) assay, EWS894; type: cell-based, human; conditions: EWS894, 3-day treatment
Method: (§2) 2,000 indicated cells were seeded in each well of 96-well plates for MTT assays to monitor cell viability at indicated time periods using a method adapted from https://www.thermofisher.com/us/en/home/references/protocols/cell-culture/mtt-assay-protocol/vybrant-mtt-cell-proliferation-assay-kit.html. Briefly, at indicated time points post-cell seeding, 10 μL MTT solution was added into each well and incubated in the culture incubator (37° C. with 5% CO2) for 4 hrs. Then medium was removed and 100 μL DMSO was added into each well to dissolve the formazan crystal and incubated for 10 min at 37° C. After thorough mixing, absorbance at 540 nm was measured using the BioTek Cytation 5 Cell Imaging reader.

Jurkat cells = assay: Cell proliferation of Jurkat cells; type: cell-based, human
Method: as §2

[1] = system: foreskin fibroblast (FF) cells; assay: Cell viability (MTT) assay, foreskin fibroblast; type: cell-based, human; conditions: 72 hrs (FIG. 5S)
Method: as §2

[2] = molecular target: T1, OTUD7A-mediated deubiquitination of EWS-FLI1 (Homo sapiens, UniProt Q8TE49); assay: Ni-NTA pulldown ubiquitination assay in HEK293T cells; type: cell-based; conditions: compound added 10 hrs prior to cell collection (FIG. 5C)
T1 construct: Myc-Flag; expressed in transfected cells; host or cells: HEK293T
Method: as §1

T1 sequence (Q8TE49 whole entry): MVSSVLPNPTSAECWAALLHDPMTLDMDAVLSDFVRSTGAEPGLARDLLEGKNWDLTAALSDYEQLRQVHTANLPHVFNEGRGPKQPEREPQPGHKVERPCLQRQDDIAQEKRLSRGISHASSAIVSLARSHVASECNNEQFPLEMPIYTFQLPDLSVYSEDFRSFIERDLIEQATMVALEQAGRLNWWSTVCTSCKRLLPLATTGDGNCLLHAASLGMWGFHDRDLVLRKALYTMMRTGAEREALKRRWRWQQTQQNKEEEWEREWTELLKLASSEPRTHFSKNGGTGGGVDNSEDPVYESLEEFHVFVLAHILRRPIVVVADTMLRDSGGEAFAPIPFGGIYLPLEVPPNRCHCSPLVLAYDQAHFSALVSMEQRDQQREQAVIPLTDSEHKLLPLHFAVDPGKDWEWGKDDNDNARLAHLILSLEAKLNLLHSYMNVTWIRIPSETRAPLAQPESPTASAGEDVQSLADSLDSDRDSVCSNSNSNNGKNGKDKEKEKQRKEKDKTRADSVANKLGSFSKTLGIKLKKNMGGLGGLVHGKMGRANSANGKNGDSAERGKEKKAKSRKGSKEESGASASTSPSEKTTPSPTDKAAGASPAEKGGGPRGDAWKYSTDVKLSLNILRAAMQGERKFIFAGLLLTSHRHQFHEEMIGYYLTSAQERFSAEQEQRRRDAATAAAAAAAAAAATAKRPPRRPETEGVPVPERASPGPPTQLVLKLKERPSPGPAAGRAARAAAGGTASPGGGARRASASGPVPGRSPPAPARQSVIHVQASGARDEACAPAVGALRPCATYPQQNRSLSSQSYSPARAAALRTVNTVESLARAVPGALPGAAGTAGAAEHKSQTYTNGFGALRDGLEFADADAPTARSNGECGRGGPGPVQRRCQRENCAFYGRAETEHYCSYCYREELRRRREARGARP

With Cn1nccc1-c1cc(-c2ccnn2C)n2nc(C(=O)Nc3cnn(Cc4c(Cl)cccc4Cl)c3)cc2n1 [7Ai] the FLI1 proteins (FLI1) was “minimal effects on FLI1 proteins”, the “proliferation (cell viability)” value (EWS894 cells) was “reduced proliferation” and the cell proliferation (Jurkat cells) was “reduced cell proliferation of Jurkat cells”. For the same compound, the “proliferation (cell viability)” value [1] was “neglectable effects” and the “OTUD7A-mediated deubiquitination of EWS-FLI1 in cells” value [2] was “efficiently blocked OTUD7A-mediated deubiquitination of EWS-FLI1”.
